Experimental data taken from patent US9808470B2, “Estrogenic components for use in the treatment of neurological disorders” (UNIVERSITE DE LIEGE, priority 2012, dated 2017).

Key:
[1] = test system: Microtubule-associated protein 2 (MAP2); experiment: Ex.3 neuroprotective HIE rat model: MAP2 staining; type: in vivo; conditions: PND14
Experimental: The brain sections were processed for immunohistochemical detection of neuronal cytoskeletal disruption. For antigen retrieval, the sections were heated in 10 mmol/L citrate buffer (pH 6.0) at 100° C. for 10 minutes. Endogenous peroxidase activity was blocked with 3% hydrogen peroxide for 10 minutes and after a second blocking with 5% normal goat serum, the sections were incubated with anti-microtubule-associated protein 2 (MAP2) antibody, diluted 1:1000 (mouse monoclonal antibody; Sigma, St. Louis, Mo., US) 1 h at room temperature. After rinsing, biotinylated goat anti-mouse immunoglobulin G (Vector Laboratories, Burlingame, Calif.) was added, and antibody detection was performed with the avidin-biotin complex method (Vector Laboratories), with 3,3′-diaminobenzidine (DAB) as the chromogen. Following the reaction with DAB, the slides were washed, dehydrated, and coverslipped.
Samples were analyzed with the aid of an image scanner (Nanozoomer Virtual Microscopy, Hamamatsu, Tokyo, Japan) and the ImageJ software (NIH, US). The MAP2 positive areas in the ipsilateral and contralateral hemispheres were measured. The ratio of the MAP2 positive areas was calculated as the MAP2 positive area of the ipsilateral hemisphere divided by the MAP2 positive area of the contralateral hemisphere. The ratio of the MAP2 positive area in the Sham group was considered by default as 1.0.
Newborn rat pups were assigned to one of the following 6 groups from postnatal day 4: Sham group (n=24), Vehicle group (n=14), E4 1 mg/kg/per day group (n=11), E4 5 mg/kg/per day group (n=14), E4 10 mg/kg/per day group (n=14), or E4 50 mg/kg/per day group (n=19). From postnatal day 4, rat pups were intraperitoneally injected either vehicle (Vehicle group) or E4 (1, 5, 10, or 50 mg/kg/per day in accordance to the E4 group assignment) or neither vehicle nor E4 (Sham group). At day 7, 30 minutes after last injection, animals were anesthetized with isoflurane (induction, 3.0%; maintenance, 1.5%), and the rat pups from Vehicle and E4 groups passed through surgery encompassing left common carotid artery double ligation and cut. After the procedure, the pups were returned to their dams and were allowed to recover for 1 hour. The pups were then placed in the humidified hypoxic in vivo cabinet (CoyLab, Grass Lake, Mich., USA). Hypoxia was produced by the inhalation of 11%-8% of oxygen balanced by nitrogen at decreased concentration of oxygen for 20 minutes, followed by inhalation of 8% oxygen and 92% nitrogen at constant concentration for 35 minutes. All the manipulations were performed at 37° C. The Sham group went through similar procedures without left common carotid artery ligation followed by hypoxia nor injection. […]

[2] = Ex.4 therapeutic HIE rat model: body weight; type: in vivo; conditions: PND14
Experimental: To study the therapeutic effect of estetrol, newborn rat pups were assigned to one of the following 6 groups at postnatal day 7: sham group (n=29), vehicle group (n=20), 1 mg/kg E4 group (n=16), 5 mg/kg E4 group (n=19), 10 mg/kg day E4 (n=17) and 50 mg/kg day E4 group (n=15). At postnatal day 7 animals were anesthetized with isoflurane (induction, 3.0%; maintenance, 1.5%), and the rat pups from vehicle and E4 groups passed through surgery encompassing left common carotid artery double ligation and cut. After surgery, the pups were returned to their dams and allowed to recover for 1 hour. The pups were then placed in a humidified hypoxic in vivo cabinet (CoyLab). Hypoxia was produced by the inhalation of 11%-8% of oxygen balanced by nitrogen at decreased concentration of oxygen for 20 minutes, followed by inhalation of 8% oxygen and 92% nitrogen at constant concentration for 35 minutes. All the manipulations were performed at 37° C.
Upon retrieval from the hypoxia chamber the rat pups were injected intraperitoneally either by vehicle (vehicle group) or by E4 (1 mg/kg, 5 mg/kg, 10 mg/kg or 50 mg/kg) in accordance to the group assignment. The animals from the sham group went through similar procedures but proceeded neither left common carotid artery ligation and cut followed by hypoxia nor vehicle or estetrol administration. Rat pups recovered with their dams until being sacrificed at postnatal day 14.
To evaluate the post-operative well-being of rat pups due to the performed manipulations and estetrol treatment, the post-operative body weight was measured at postnatal days 7 and 14.

In the case of `C[C@]12CC[C@@H]3c4ccc(O)cc4CC[C@H]3[C@@H]1[C@@H](O)[C@@H](O)[C@@H]2O` [E4, 1,3,5(10)-estratrien-3,15α,16α,17β-tetrol], the “ratio of MAP2-positive area (ipsilateral/contralateral)” value (“ratio … (ipsilateral/contralateral)” for short) ([1]; 1 mg/kg E4 ip PND4-7 before HI) is reported as 0.929±0.019, the “ratio … (ipsilateral/contralateral)” value ([1]; 5 mg/kg E4 ip PND4-7 before HI) is reported as 0.889±0.063 and the “ratio … (ipsilateral/contralateral)” value ([1]; 10 mg/kg E4 ip PND4-7 before HI) is reported as 0.898±0.022. For the same compound, the “ratio … (ipsilateral/contralateral)” value ([1]; 50 mg/kg E4 ip PND4-7 before HI) was 0.922±0.031, the body weight ([2]; 1 mg/kg E4 single ip dose after HI, vs vehicle) was “significantly higher body weight than the vehicle group” and the body weight ([2]; 5 mg/kg E4 single ip dose after HI, vs sham) was “Sham operated animals showed significantly higher body weight”. For the same compound, the body weight ([2]; 5 mg/kg E4 single ip dose after HI, vs vehicle) was “significantly higher body weight than the vehicle group”, the body weight ([2]; 10 mg/kg E4 single ip dose after HI, vs vehicle) was “significantly higher body weight than the vehicle group” and the body weight ([2]; 50 mg/kg E4 single ip dose after HI, vs vehicle) was “significantly higher body weight than the vehicle group”.
